{"source": "paper PMC5688144", "about": "“Assay interference and off-target liabilities of reported histone acetyltransferase inhibitors” (Nature Communications, 2017)", "key": {"MYST4": {"tested_on": "MYST4", "details": "original report; ref 22 (Supplementary References); cited from earlier work"}, "MYST2": {"tested_on": "MYST2", "details": "cited from earlier work"}, "KAT5": {"tested_on": "KAT5", "design": "method as in ref 22 (Supplementary References)", "details": "original report; ref 22 (Supplementary References); cited from earlier work"}, "Rtt109": {"tested_on": "Rtt109", "details": "cited from earlier work"}, "HEK293T and MCF7 cells [1]": {"tested_on": "HEK293T and MCF7 cells", "assay": "Membrane permeability (SYTOX green uptake)", "assay_type": "cell-based", "details": "for membrane permeability: Sytox green dead-cell dye uptake", "experimental": "(§1) For cell growth analyses, cells were seeded in 96-well plates, treated with compounds for the indicated times, and monitored over time in a live cell Incucyte™ ZOOM imager (Essen Biosciences). To label apoptotic and dead cells, caspase 3/7 activatable DEVD recognition motif NucView™ 488 DNA intercalating dye (1:1000 dilution, Essen Biosciences) and SYTOX™ green nucleic acid stain (1:1000 dilution, Invitrogen) were used respectively, following manufacturer instructions."}, "HEK293T and MCF7 cells [2]": {"tested_on": "HEK293T and MCF7 cells", "assay": "Cell proliferation by cell confluence", "assay_type": "cell-based", "details": "30 µM compound; MCF7 and HEK293T cells", "experimental": "(§2) Cells were cultured in DMEM supplemented with 10% fetal bovine serum (Winsent), penicillin (100 U mL^−1), and streptomycin (100 µg mL^−1). Compounds dissolved in DMSO or matching DMSO-only controls were added to cells for indicated times. Compound effects in cells were determined as described[67] and are outlined below.\nas §1"}, "[3]": {"tested_on": "caspase 3/7 activity in HEK293T and MCF7 cells", "assay": "Live-cell caspase 3/7 activity", "assay_type": "cell-based", "details": "24 h after compound addition", "experimental": "as §1"}, "[4]": {"tested_on": "H3K27ac levels in HEK293T and MCF7 cells", "assay": "Cellular H3K27ac western blot", "assay_type": "cell-based", "details": "10 and 30 μM compound", "experimental": "as §2\nFor western blot analyses, cells were lysed in lysis buffer (20 mM Tris–HCl, pH 8, 150 mM NaCl, 1 mM EDTA, 10 mM MgCl2, 0.5% Triton X-100 (v/v), 12.5 U mL^−1 benzonase (Sigma), complete EDTA-free protease inhibitor cocktail (Roche)). After 3 min incubation at RT, SDS was added to final 1% concentration (w/v). Total cell lysates were resolved in 4–12% Bis-Tris protein gels (Invitrogen) with MOPS buffer (Invitrogen) and transferred for 1.5 h (80 V) onto PVDF membrane (Millipore) in tris-glycine transfer buffer containing 20% methanol and 0.05% SDS. Blots were blocked for 1 h in blocking buffer (5% milk in 0.1% Tween 20/PBS) and incubated with respective primary antibodies: H3K27ac (1:1000, CST #8173), H3 (1:1000, Abcam #10799), p300 (1:2000, Bethyl #A300-358A), CBP (1:1000, Bethyl #A300-362A), actin (1:3000, Abcam #3280), α-tubulin (1:1000, 12G10 DHSB), and α-tubulin-K40ac (1:2000, Abcam #179484) in blocking buffer overnight at 4 °C. After five washes with 0.1% Tween 20/PBS, the blots were incubated with goat anti-rabbit IgG (IRDye 800-conjugated, LiCor #926-32211) and donkey anti-mouse IgG (IRDye 680-conjugated, LiCor #926-68072) antibodies (1:5000) in Odyssey Blocking Buffer (LiCor) for 1 h at RT and washed with 0.1% Tween 20/PBS. The signal was read on an Odyssey scanner (LiCor) at 800 and 700 nm. Representative uncropped images with molecular weight markers are provided (Supplementary Figs. 9, 12, 13)."}, "SAS": {"tested_on": "SAS", "design": "method as in ref 5 (Supplementary References)", "details": "@ 10 µM; ref 5 (Supplementary References); cited from earlier work"}, "200 kinases": {"biological_target": "200 kinases", "assay": "Expanded kinase profile (Cerep/Eurofins)", "assay_type": "biochemical", "details": "10 μM compound", "experimental": "Assays were performed using either homogeneous time-resolved fluorescence or LANCE® time-resolved-FRET formats (see cerep.fr for additional details). […] Reference control compounds were included in each assay."}, "[5]": {"tested_on": "panel of proteases, kinases, and phosphatases", "assay": "Pilot selectivity panel (Reaction Biology)", "assay_type": "biochemical", "details": "10 µM compound", "experimental": "(§3) Selectivity profiles vs. HATs, HDACs, SIRTs, HMTs, proteases, kinases, and phosphatases were performed by Reaction Biology Corporation (Malvern, PA; Fig. 3 and Supplementary Fig. 3). Percent activity was normalized to DMSO-only controls. Reference control compounds were included in each assay.\n(§4) Relevant reaction procedures for each target class are briefly summarized (see reactionbiology.com for additional details). HATs: reaction buffer 50 mM Tris–HCl, pH 8.0, 50 mM NaCl, 0.1 mM EDTA, ± 1 mM DTT, 1 mM PMSF, 1% DMSO; substrate [^3H]-acetyl-CoA; reaction time 1 h; end-point measurement. […] HMTs: reaction buffer 50 mM Tris–HCl, pH 8.0, 0.01% Brij35, 1 mM EDTA, 1 mM DTT, 1 mM PMSF, 1% DMSO (EZH2); reaction buffer 50 mM Tris–HCl, pH 7.5, 5 mM EDTA, 0.01% Brij35, 5 mM DTT, 0.1 mM PMSF, 5% glycerol, 1% DMSO; 50 mM Tris–HCl, pH 8.5, 5 mM MgCl2, 50 mM NaCl, 0.01 Brij35, 1 mM DTT, 1% DMSO (G9a); methyl donor 1 μM S-Adenosyl-L-[methyl-^3H]-methionine; substrate 5 μM histone proteins or 0.05 mg mL^−1 nucleosomes; pre-incubation time 10–15 min; reaction time 0.5–1 h; end-point measurement. Caspases: reaction buffer 50 mM HEPES, pH 7.4, 1 M citrate, 100 mM NaCl, 0.01% CHAPS, 0.1 mM EDTA, 10 mM DTT; fluorogenic peptide substrate; pre-incubation time 10 min; reaction time 2 h; time-course measurement. Kinases: reaction buffer 20 mM HEPES, pH 7.5, 10 mM MgCl2, 1 mM EGTA, 0.02% Brij35, 0.02 mg mL^−1 BSA, 0.1 mM Na3VO4, 2 mM DTT, 1% DMSO; substrate [^33P]-ATP; reaction time 2 h; end-point measurement."}, "MOZ": {"tested_on": "MOZ", "details": "@ 10 µM; ref 5 (Supplementary References); cited from earlier work"}, "PCAF": {"biological_target": "T1, PCAF (Homo sapiens, UniProt Q92831)", "T1 construct": "Reaction Biology Corporation (assays run by this contract lab)", "T1 sequence (Q92831 whole entry, species assumed)": "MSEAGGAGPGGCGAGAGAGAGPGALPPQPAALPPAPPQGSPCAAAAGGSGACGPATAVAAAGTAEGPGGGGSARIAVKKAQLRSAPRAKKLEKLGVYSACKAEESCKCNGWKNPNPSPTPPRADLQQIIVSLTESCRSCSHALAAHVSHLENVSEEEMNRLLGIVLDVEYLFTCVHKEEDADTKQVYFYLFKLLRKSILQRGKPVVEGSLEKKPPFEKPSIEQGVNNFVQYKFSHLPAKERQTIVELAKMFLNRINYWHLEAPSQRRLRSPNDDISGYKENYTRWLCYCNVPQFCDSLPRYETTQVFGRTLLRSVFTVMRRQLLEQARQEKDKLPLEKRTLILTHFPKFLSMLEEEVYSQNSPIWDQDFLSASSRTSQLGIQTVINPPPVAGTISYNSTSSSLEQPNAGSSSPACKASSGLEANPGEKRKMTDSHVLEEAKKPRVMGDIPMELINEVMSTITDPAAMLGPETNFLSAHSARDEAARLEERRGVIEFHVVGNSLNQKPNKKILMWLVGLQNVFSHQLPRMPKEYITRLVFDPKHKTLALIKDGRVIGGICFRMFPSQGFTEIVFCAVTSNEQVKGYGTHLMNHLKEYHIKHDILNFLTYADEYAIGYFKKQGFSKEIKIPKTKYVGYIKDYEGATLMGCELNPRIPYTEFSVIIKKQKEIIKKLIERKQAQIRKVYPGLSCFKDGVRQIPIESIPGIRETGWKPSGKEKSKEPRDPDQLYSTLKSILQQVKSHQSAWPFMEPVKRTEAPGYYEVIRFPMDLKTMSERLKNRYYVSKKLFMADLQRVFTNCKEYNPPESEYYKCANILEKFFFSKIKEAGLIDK", "assay": "PCAF activity in presence and absence of DTT", "assay_type": "biochemical", "details": "10 and 100 μM compound", "experimental": "as §3\nas §4, with “Kinases: reaction buffer 20 mM HEPES, pH 7.5, 10 mM MgCl2, 1 mM EGTA, 0.02% Brij35, 0.02 mg mL^−1 BSA, 0.1 mM Na3VO4, 2 mM DTT, 1% DMSO; substrate [^33P]-ATP; reaction time 2 h; end-point measurement.” left out"}, "p300": {"biological_target": "T2, p300 (Homo sapiens, UniProt Q09472)", "T2 construct": "Reaction Biology Corporation (assays run by this contract lab)", "T2 sequence (Q09472 whole entry, species assumed)": "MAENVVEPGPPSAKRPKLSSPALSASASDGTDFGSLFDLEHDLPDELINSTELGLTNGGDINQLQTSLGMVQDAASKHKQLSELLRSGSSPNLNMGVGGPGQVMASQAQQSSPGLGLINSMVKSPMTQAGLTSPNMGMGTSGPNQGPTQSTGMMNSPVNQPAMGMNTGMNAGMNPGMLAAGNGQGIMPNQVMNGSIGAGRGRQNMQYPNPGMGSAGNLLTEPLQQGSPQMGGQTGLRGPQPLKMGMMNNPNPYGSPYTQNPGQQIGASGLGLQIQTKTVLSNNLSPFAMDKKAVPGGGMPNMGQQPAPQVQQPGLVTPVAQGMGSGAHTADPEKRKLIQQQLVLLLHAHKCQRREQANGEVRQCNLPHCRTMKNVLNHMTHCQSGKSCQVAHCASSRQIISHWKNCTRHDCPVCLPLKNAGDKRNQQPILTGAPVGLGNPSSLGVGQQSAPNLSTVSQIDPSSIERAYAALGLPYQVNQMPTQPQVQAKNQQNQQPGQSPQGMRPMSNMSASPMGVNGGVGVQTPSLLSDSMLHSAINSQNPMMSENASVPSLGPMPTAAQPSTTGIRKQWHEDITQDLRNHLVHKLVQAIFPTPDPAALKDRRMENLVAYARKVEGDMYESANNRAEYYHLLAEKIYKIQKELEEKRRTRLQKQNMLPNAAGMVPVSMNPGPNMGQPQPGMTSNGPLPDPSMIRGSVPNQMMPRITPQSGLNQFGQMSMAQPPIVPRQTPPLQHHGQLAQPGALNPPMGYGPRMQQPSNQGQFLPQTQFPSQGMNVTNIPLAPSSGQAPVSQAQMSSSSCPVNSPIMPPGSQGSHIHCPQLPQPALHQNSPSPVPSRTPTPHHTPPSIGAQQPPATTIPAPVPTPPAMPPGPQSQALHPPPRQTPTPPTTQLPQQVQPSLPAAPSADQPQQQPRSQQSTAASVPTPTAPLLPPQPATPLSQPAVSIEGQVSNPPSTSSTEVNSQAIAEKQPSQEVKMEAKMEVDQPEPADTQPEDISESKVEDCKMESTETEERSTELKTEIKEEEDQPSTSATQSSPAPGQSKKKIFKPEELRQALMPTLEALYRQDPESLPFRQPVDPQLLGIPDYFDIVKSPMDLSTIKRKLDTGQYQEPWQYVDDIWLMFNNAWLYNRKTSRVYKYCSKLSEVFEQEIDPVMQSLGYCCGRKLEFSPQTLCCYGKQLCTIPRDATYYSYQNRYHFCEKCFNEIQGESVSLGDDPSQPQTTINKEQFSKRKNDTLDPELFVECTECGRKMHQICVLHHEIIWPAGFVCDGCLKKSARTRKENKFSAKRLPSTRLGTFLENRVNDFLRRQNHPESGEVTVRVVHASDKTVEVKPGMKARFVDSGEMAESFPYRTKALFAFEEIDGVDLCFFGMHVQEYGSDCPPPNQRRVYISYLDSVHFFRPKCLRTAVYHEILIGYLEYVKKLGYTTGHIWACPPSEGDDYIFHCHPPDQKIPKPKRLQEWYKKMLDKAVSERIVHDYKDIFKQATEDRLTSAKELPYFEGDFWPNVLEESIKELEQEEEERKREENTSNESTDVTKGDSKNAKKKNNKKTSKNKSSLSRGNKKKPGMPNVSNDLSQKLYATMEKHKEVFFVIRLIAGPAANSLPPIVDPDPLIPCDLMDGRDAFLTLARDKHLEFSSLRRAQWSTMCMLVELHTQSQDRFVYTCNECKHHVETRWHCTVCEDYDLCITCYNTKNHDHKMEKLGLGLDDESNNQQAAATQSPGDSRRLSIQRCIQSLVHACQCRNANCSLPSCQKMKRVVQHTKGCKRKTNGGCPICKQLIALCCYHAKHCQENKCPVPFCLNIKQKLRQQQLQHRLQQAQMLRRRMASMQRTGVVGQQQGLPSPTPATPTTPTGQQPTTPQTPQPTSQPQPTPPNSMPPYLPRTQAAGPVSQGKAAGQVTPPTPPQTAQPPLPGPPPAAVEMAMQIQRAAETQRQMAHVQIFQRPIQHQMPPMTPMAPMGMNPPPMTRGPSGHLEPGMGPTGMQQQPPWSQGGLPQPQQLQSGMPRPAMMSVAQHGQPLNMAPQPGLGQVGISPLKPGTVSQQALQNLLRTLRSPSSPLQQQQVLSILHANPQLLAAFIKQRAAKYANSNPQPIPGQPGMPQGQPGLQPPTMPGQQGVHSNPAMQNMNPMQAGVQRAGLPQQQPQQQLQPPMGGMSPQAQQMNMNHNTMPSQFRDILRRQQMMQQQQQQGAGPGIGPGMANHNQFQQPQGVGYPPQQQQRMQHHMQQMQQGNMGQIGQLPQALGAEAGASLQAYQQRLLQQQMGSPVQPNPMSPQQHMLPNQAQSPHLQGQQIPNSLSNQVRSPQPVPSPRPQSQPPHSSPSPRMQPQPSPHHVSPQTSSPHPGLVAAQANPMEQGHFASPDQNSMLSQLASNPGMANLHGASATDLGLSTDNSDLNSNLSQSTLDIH", "details": "read-out: IC50 (µM), p300; original report; 22 (Supplementary References); cited from earlier work"}, "MOF": {"tested_on": "MOF", "design": "method as in ref 19, 26 (Supplementary References)", "details": "original report; 26 (Supplementary References); cited from earlier work"}}, "note": "“Also recorded” adds a separate entry of the source."}
{"compound": "COc1ccc(/C(Cl)=C(/C=O)c2ccc(OC)cc2)cc1", "note": "[Compound 18, Windorphen]", "values": [{"measurement": "IC50", "setting": "MYST4", "value": "> 100", "unit": "µM"}, {"measurement": "IC50", "setting": "MYST2; original report, ref 22 (Supplementary References)", "value": "> 100", "unit": "µM"}, {"measurement": "IC50", "setting": "KAT5", "value": "> 100", "unit": "µM"}]}
{"compound": "CCCC1(c2ccccc2)NC(=O)N(CC(=O)N(C)Cc2c(F)cccc2Cl)C1=O", "note": "(stereo not shown) [Compound 21, N-[(2-chloro-6-fluorophenyl)methyl]-2-(2,5-dioxo-4-phenyl-4-propylimidazolidin-1-yl)-N-methylacetamide]", "values": [{"measurement": "IC50", "setting": "Rtt109; original report, ref 25 (Supplementary References)", "value": 0.056, "unit": "µM"}]}
{"compound": "Plumbagin [Compound 8]", "values": [{"measurement": "cytotoxicity by membrane integrity studies", "setting": "HEK293T and MCF7 cells [1]; 30 µM compound, MCF7 cells", "value": "cytotoxic"}, {"measurement": "membrane permeability", "setting": "HEK293T and MCF7 cells [1]", "value": "increase; also recorded: dose-dependent increases"}, {"measurement": "cell death by cell confluence studies", "setting": "HEK293T and MCF7 cells [2]", "value": "causes cell death"}]}
{"compound": "O=C1/C(=C/c2ccc(O)c(Br)c2)CCC/C1=C\\c1ccc(O)c(Br)c1", "note": "[Compound 12, HAT inhibitor II]", "values": [{"measurement": "membrane permeability", "setting": "HEK293T and MCF7 cells [1]", "value": "increase; also recorded: dose-dependent increases"}, {"measurement": "caspase 3/7 activity", "setting": "[3]", "value": "induce; also recorded: dose-dependent increases"}]}
{"compound": "CCCCCCCCCCCCCCCc1cccc(O)c1C(=O)O", "note": "[Compound 14, Anacardic acid]", "values": [{"measurement": "cellular H3K27ac levels", "setting": "[4]", "value": "did not perturb"}]}
{"compound": "Cc1cc(O)cc(C)c1C=C1C(=O)N(Cc2ccccc2)C(=O)N(Cc2ccccc2)C1=O", "note": "[Compound 4, EML425]", "values": [{"measurement": "cellular H3K27ac levels", "setting": "[4]", "value": "did not perturb"}]}
{"compound": "CC1=NN(c2ccc(C(=O)O)cc2)C(=O)/C1=C/c1ccc(-c2cc(C)c(C)cc2[N+](=O)[O-])o1", "note": "[Compound 1, C646]", "values": [{"measurement": "cellular H3K27ac levels", "setting": "[4]", "value": "decreased"}, {"measurement": "% inhibition, Rtt109", "setting": "Rtt109; @ 10 µM, ref 5 (Supplementary References)", "value": "< 10", "unit": "%"}, {"measurement": "% inhibition, SAS", "setting": "SAS", "value": "< 10", "unit": "%"}, {"measurement": "kinases with >50% inhibition", "setting": "200 kinases", "value": "26 out of 200"}, {"measurement": "inhibition against the tested kinases and phosphatases", "setting": "[5]", "value": "low levels of inhibition"}, {"measurement": "proteases with > 50% inhibition", "setting": "[5]; 17 proteases", "value": "7 out of 17"}, {"measurement": "% inhibition, MOZ", "setting": "MOZ", "value": "< 10", "unit": "%"}]}
{"compound": "O=c1c2cccnc2sn1Cc1ccc(C(F)(F)F)cc1", "note": "[Compound 3, PU141]", "values": [{"measurement": "inhibition of PCAF in the absence of DTT compared with DTT present", "setting": "PCAF", "value": "notable exceptions"}, {"measurement": "activity vs. most of the targets tested", "setting": "[5]; proteases, kinases, phosphatases", "value": "little activity"}]}
{"compound": "Cc1cc2c(C(C)C)c(O)c(O)c(C=O)c2c(O)c1-c1c(C)cc2c(C(C)C)c(O)c(O)c(C=O)c2c1O", "note": "[Compound 16, Gossypol]", "values": [{"measurement": "IC50", "setting": "p300", "value": "~25", "unit": "µM"}]}
{"compound": "COc1ccc(S(=O)(=O)ON=C2C=C(C)C(=O)C(C)=C2)cc1", "note": "[Compound 5, L002]", "values": [{"measurement": "inhibition of PCAF in the absence of DTT compared with DTT present", "setting": "PCAF", "value": "notable exceptions"}, {"measurement": "cellular H3K27ac levels", "setting": "[4]", "value": "decreased"}, {"measurement": "% inhibition, MYST2", "setting": "MYST2; @ 100 µM, HotSpot, ref 9 (Supplementary References)", "value": 1, "unit": "%"}]}
{"compound": "CCCCCCCc1ccc(CCc2cccc(O)c2C(=O)O)cc1", "note": "[Compound 15, MG 149]", "values": [{"measurement": "IC50", "setting": "MOF", "value": 47, "unit": "µM"}]}
